A short description of data set [1]: H+/Na+ transport assay of bead-derived peptides (one-point).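 Further: relative to parent gramicidin A activity set to 1.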 The class given is biochemical. The note with it: bead-derived peptide solution, EYPC/EYPG LUVs. On the set-up: key: relative activity; mean of two control wells = 1.00. The essentials: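 H+/Na+ transport is monitored through pyranine fluorescence in freshly extruded LUVs after a 30-min room-temperature vortex with each library peptide at a single concentration. Signals are normalized to detergent (Triton X-100) and untreated controls.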

For data set [2] the following is noted: cell viability/%. The method in brief:
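Peptide stocks diluted 250× in growth medium; P388 cells 1 × 10^4 cells/mL final; 37 °C, 5% CO2, 92 h. WST-1 + 1-methoxy PMS, 4 h, A415. Output: % viability.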

Data set [3] deals with Streptococcus pyogenes SSI-9. The data set can be described thus: Antibacterial activity assay of bead-derived peptides (three concentrations). The note with it: S. pyogenes, bead-derived peptide solution, three concentrations. Type of data set: cell-based. Further details: key: +++: inhibition by the 640-fold diluted peptide solution; ++: inhibition by the 160-fold diluted solution; +: inhibition by the 40-fold diluted solution; -: no inhibition. The method in brief: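 Growth inhibition scored visually as precipitated bacteria after 37 °C, 18 h incubation. Streptococcus pyogenes SSI-9 inoculum of 2 × 10^5 CFU in Ca2+/Mg2+-adjusted Mueller Hinton broth plus 5% laked horse blood; peptides tested at three levels: stock, 4-fold and 16-fold DMSO dilutions.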

Where a SMILES comes first, the peptide text is derived from it. [ ]: non-standard residue; d: D form. The star is where a group is joined. NHCH2CH2OH = OCCN*; For = O=C*

From paper PMC7531004, “Discovery of gramicidin A analogues with altered activities by multidimensional screening of a one-bead-one-compound library” (Nature Communications, 2020) come the findings set out here.

For `CC(C)C[C@@H](NC(=O)[C@H](Cc1c[nH]c2ccccc12)NC(=O)[C@H](NC(=O)[C@H](Cc1c[nH]c2ccccc12)NC(=O)[C@H](NC(=O)[C@@H](NC(=O)[C@H](NC(=O)[C@H](C)NC(=O)[C@H](NC(=O)[C@H](C)NC(=O)CNC(=O)[C@@H](NC=O)C(C)C)C(C)C)C(C)C)C(C)C)C(C)C)[C@H](C)O)C(=O)N[C@@H](Cc1c[nH]c2ccccc12)C(=O)N[C@@H](C(=O)N[C@@H](Cc1c[nH]c2ccccc12)C(=O)NCCO)C(C)C` [compound 2066] (For-VGA[dV]A[dV]V[dV]W[dT]W[dL]W[dV]W-NHCH2CH2OH), in data set [1], the “H+/Na+ transport activity normalized against the value of 1 (1.00)” value (from here on “H+/Na+ transport activity normalized”) is given as 1.07. The viability (usually a per cent measure of how many cells are alive, often set against a control) in data set [2] was 100%. For the same compound, the antibacterial activity entry in data set [3] is reported as “-”.

Take `CC(C)C[C@@H](NC(=O)[C@H](C)NC(=O)CNC(=O)[C@@H](NC=O)C(C)C)C(=O)N[C@@H](C)C(=O)N[C@@H](C(=O)N[C@H](C(=O)N[C@H](CC(C)C)C(=O)N[C@@H](Cc1c[nH]c2ccccc12)C(=O)N[C@@H](C(=O)N[C@@H](Cc1c[nH]c2ccccc12)C(=O)N[C@@H](C(=O)N[C@@H](Cc1c[nH]c2ccccc12)C(=O)N[C@H](CC(C)C)C(=O)N[C@@H](Cc1c[nH]c2ccccc12)C(=O)NCCO)C(C)C)[C@H](C)O)C(C)C)C(C)C` [compound 2236] (For-VGA[dL]A[dV]V[dL]W[dT]W[dV]W[dL]W-NHCH2CH2OH): the “H+/Na+ transport activity normalized” value in data set [1] is 1.03. In addition, in data set [2], the viability was found to be 100%. Besides, in data set [3], the antibacterial activity entry was “+”.

`CC(C)C[C@@H](NC(=O)[C@H](Cc1c[nH]c2ccccc12)NC(=O)[C@@H](CC(C)C)NC(=O)[C@H](Cc1c[nH]c2ccccc12)NC(=O)[C@H](NC(=O)[C@H](Cc1c[nH]c2ccccc12)NC(=O)[C@@H](CC(C)C)NC(=O)[C@@H](NC(=O)[C@H](NC(=O)[C@H](C)NC(=O)[C@H](NC(=O)[C@H](C)NC(=O)CNC(=O)[C@@H](NC=O)C(C)C)[C@H](C)O)C(C)C)C(C)C)C(C)C)C(=O)N[C@@H](Cc1c[nH]c2ccccc12)C(=O)NCCO` [compound 8827] (For-VGA[dT]A[dV]V[dL]W[dV]W[dL]W[dL]W-NHCH2CH2OH): the “H+/Na+ transport activity normalized” value in data set [1] was found to be 1.22. Further, the viability in data set [2] came out at 80.7%. In addition, in data set [3], the antibacterial activity entry is “-”.

In the case of `CNC(=O)C[C@@H](NC(=O)[C@@H](NC(=O)[C@@H](CC(C)C)NC(=O)[C@H](C)NC(=O)[C@@H](CC(C)C)NC(=O)[C@H](C)NC(=O)CNC(=O)[C@@H](NC=O)C(C)C)C(C)C)C(=O)N[C@@H](Cc1c[nH]c2ccccc12)C(=O)N[C@H](CC(C)C)C(=O)N[C@@H](Cc1c[nH]c2ccccc12)C(=O)N[C@@H](C(=O)N[C@@H](Cc1c[nH]c2ccccc12)C(=O)N[C@@H](C(=O)N[C@@H](Cc1c[nH]c2ccccc12)C(=O)NCCO)C(C)C)C(C)C` [compound 10379] (For-VGA[dL]A[dL]V[dD](NHMe)W[dL]W[dV]W[dV]W-NHCH2CH2OH), the “H+/Na+ transport activity normalized” value in data set [1] is given as 1.08. For the same compound, the viability in data set [2] was determined as 100%. The antibacterial activity entry in data set [3] is given as “-”.

`CC(C)C[C@@H](NC(=O)[C@H](C)NC(=O)CNC(=O)[C@@H](NC=O)C(C)C)C(=O)N[C@@H](C)C(=O)N[C@H](CC(C)C)C(=O)N[C@H](C(=O)N[C@@H](C(=O)N[C@@H](Cc1c[nH]c2ccccc12)C(=O)N[C@@H](C(=O)N[C@@H](Cc1c[nH]c2ccccc12)C(=O)N[C@@H](C(=O)N[C@@H](Cc1c[nH]c2ccccc12)C(=O)N[C@H](CC(C)C)C(=O)N[C@@H](Cc1c[nH]c2ccccc12)C(=O)NCCO)C(C)C)C(C)C)[C@H](C)O)C(C)C` [compound 4784] (For-VGA[dL]A[dL]V[dT]W[dV]W[dV]W[dL]W-NHCH2CH2OH): in data set [1], the “H+/Na+ transport activity normalized” value was 1.19. This compound also displayed a viability in data set [2] of 100%. In addition, in data set [3], the antibacterial activity result is on record as “-”.

For `CC(C)[C@H](NC=O)C(=O)NCC(=O)N[C@@H](C)C(=O)N[C@@H](C(=O)N[C@@H](C)C(=O)N[C@@H](C(=O)N[C@H](C(=O)N[C@@H](C(=O)N[C@@H](Cc1c[nH]c2ccccc12)C(=O)N[C@@H](C(=O)N[C@@H](Cc1c[nH]c2ccccc12)C(=O)N[C@@H](C(=O)N[C@@H](Cc1c[nH]c2ccccc12)C(=O)N[C@@H](C(=O)N[C@@H](Cc1c[nH]c2ccccc12)C(=O)NCCO)[C@H](C)O)C(C)C)C(C)C)C(C)C)C(C)C)C(C)C)C(C)C` [compound 1983] (For-VGA[dV]A[dV]V[dV]W[dV]W[dV]W[dT]W-NHCH2CH2OH), the “H+/Na+ transport activity normalized” value in data set [1] amounted to 1.00. Besides, the viability in data set [2] came to 100%. Further, the antibacterial activity entry in data set [3] was “-”.

Take `CC(C)C[C@@H](NC(=O)[C@H](C)NC(=O)CNC(=O)[C@@H](NC=O)C(C)C)C(=O)N[C@@H](C)C(=O)N[C@@H](C(=O)N[C@H](C(=O)N[C@@H](C(=O)N[C@@H](Cc1c[nH]c2ccccc12)C(=O)N[C@@H](C(=O)N[C@@H](Cc1c[nH]c2ccccc12)C(=O)N[C@H](CC(C)C)C(=O)N[C@@H](Cc1c[nH]c2ccccc12)C(=O)N[C@H](CC(C)C)C(=O)N[C@@H](Cc1c[nH]c2ccccc12)C(=O)NCCO)[C@H](C)O)C(C)C)C(C)C)[C@H](C)O` [compound 1592] (For-VGA[dL]A[dT]V[dV]W[dT]W[dL]W[dL]W-NHCH2CH2OH): the “H+/Na+ transport activity normalized” value in data set [1] worked out at 1.03. In data set [2], the viability is 100%. The antibacterial activity result in data set [3] is recorded as “-”.

Regarding `CC(C)C[C@@H](NC(=O)[C@H](C)NC(=O)CNC(=O)[C@@H](NC=O)C(C)C)C(=O)N[C@@H](C)C(=O)N[C@H](CC(C)C)C(=O)N[C@H](C(=O)N[C@H](CC(C)C)C(=O)N[C@@H](Cc1c[nH]c2ccccc12)C(=O)N[C@@H](C(=O)N[C@@H](Cc1c[nH]c2ccccc12)C(=O)N[C@H](CC(C)C)C(=O)N[C@@H](Cc1c[nH]c2ccccc12)C(=O)N[C@@H](C(=O)N[C@@H](Cc1c[nH]c2ccccc12)C(=O)NCCO)[C@H](C)O)C(C)C)C(C)C` [compound 770] (For-VGA[dL]A[dL]V[dL]W[dV]W[dL]W[dT]W-NHCH2CH2OH), in data set [1], the “H+/Na+ transport activity normalized” value turned out to be 1.11. In addition, the viability in data set [2] is 100%. Also, the antibacterial activity entry in data set [3] was “-”.

In the case of `CC(C)C[C@@H](NC(=O)[C@H](C)NC(=O)CNC(=O)[C@@H](NC=O)C(C)C)C(=O)N[C@@H](C)C(=O)N[C@H](CC(C)C)C(=O)N[C@H](C(=O)N[C@H](CC(C)C)C(=O)N[C@@H](Cc1c[nH]c2ccccc12)C(=O)N[C@H](CC(C)C)C(=O)N[C@@H](Cc1c[nH]c2ccccc12)C(=O)N[C@H](CC(C)C)C(=O)N[C@@H](Cc1c[nH]c2ccccc12)C(=O)N[C@H](CC(C)C)C(=O)N[C@@H](Cc1c[nH]c2ccccc12)C(=O)NCCO)C(C)C` [compound 2904] (For-VGA[dL]A[dL]V[dL]W[dL]W[dL]W[dL]W-NHCH2CH2OH), the “H+/Na+ transport activity normalized” value in data set [1] is listed as 1.09. Also, in data set [2], the viability is 12.5%. The antibacterial activity entry in data set [3] is “-”.

As to `CC(C)C[C@@H](NC(=O)[C@H](C)NC(=O)CNC(=O)[C@@H](NC=O)C(C)C)C(=O)N[C@@H](C)C(=O)N[C@@H](C(=O)N[C@H](C(=O)N[C@@H](C(=O)N[C@@H](Cc1c[nH]c2ccccc12)C(=O)N[C@@H](C(=O)N[C@@H](Cc1c[nH]c2ccccc12)C(=O)N[C@@H](C(=O)N[C@@H](Cc1c[nH]c2ccccc12)C(=O)N[C@H](CC(C)C)C(=O)N[C@@H](Cc1c[nH]c2ccccc12)C(=O)NCCO)C(C)C)C(C)C)C(C)C)C(C)C)[C@H](C)O` [compound 2475] (For-VGA[dL]A[dT]V[dV]W[dV]W[dV]W[dL]W-NHCH2CH2OH), the “H+/Na+ transport activity normalized” value in data set [1] worked out at 1.13. The compound also showed a viability in data set [2] of 100%. In addition, the antibacterial activity result in data set [3] is on record as “-”.

Regarding `CC(C)C[C@@H](NC(=O)[C@H](Cc1c[nH]c2ccccc12)NC(=O)[C@H](NC(=O)[C@@H](NC(=O)[C@H](NC(=O)[C@H](C)NC(=O)[C@H](NC(=O)[C@H](C)NC(=O)CNC(=O)[C@@H](NC=O)C(C)C)[C@H](C)O)C(C)C)C(C)C)C(C)C)C(=O)N[C@@H](Cc1c[nH]c2ccccc12)C(=O)N[C@H](CC(C)C)C(=O)N[C@@H](Cc1c[nH]c2ccccc12)C(=O)N[C@@H](C(=O)N[C@@H](Cc1c[nH]c2ccccc12)C(=O)NCCO)C(C)C` [compound 4452] (For-VGA[dT]A[dV]V[dV]W[dL]W[dL]W[dV]W-NHCH2CH2OH), in data set [1], the “H+/Na+ transport activity normalized” value is recorded as 1.30. The compound further displayed a viability in data set [2] of 100%. For the same compound, in data set [3], the antibacterial activity entry was “-”.

In the case of `CNC(=O)C[C@@H](NC(=O)[C@H](Cc1c[nH]c2ccccc12)NC(=O)[C@H](NC(=O)[C@@H](NC(=O)[C@@H](CC(C)C)NC(=O)[C@H](C)NC(=O)[C@@H](CC(C)C)NC(=O)[C@H](C)NC(=O)CNC(=O)[C@@H](NC=O)C(C)C)C(C)C)C(C)C)C(=O)N[C@@H](Cc1c[nH]c2ccccc12)C(=O)N[C@H](CC(C)C)C(=O)N[C@@H](Cc1c[nH]c2ccccc12)C(=O)N[C@@H](C(=O)N[C@@H](Cc1c[nH]c2ccccc12)C(=O)NCCO)C(C)C` [compound 3329] (For-VGA[dL]A[dL]V[dV]W[dD](NHMe)W[dL]W[dV]W-NHCH2CH2OH), in data set [1], the “H+/Na+ transport activity normalized” value was determined as 1.33. The viability in data set [2] worked out at 100%. The antibacterial activity entry in data set [3] is “+”.
